Results taken from patent publication US12280044B2, “Proteolysis-targeting chimera molecule and preparation method and use thereof” (GUANGZHOU MEDICAL UNIVERSITY, priority 2022, dated 2025).

What was measured:
zebrafish [1] = assay: Zebrafish experiment: melanin production in the back (gray value); format: in vivo
Method: (§1) Cultivation conditions for zebrafish and fish eggs: a temperature: 28° C.±1° C.; light: irradiation with a fluorescent lamp; and a light/dark cycle: 14 h light/10 h dark.
1. A specific experimental method was as follows: • (1) In the afternoon of day 1, fish mating was conducted to produce 800 to 1,000 fish eggs in a same batch. […] In the afternoon of day 2, water was replaced by an E3 medium including a sample in a corresponding experimental group. • (3) Every morning thereafter, the original medium was replaced by a fresh E3 medium including a sample in a corresponding experimental group. • (4) After fish came out from an egg membrane, the egg membrane was removed, the plate was washed twice with an E3 medium, and an E3 medium including a sample in a corresponding experimental group was added, where a date on which the fish came out from the egg membrane was recorded as day 0. • (5) From day 1 to day 5, after a medium was changed every morning, 15 fish were randomly selected from each experimental group and tested under a stereo microscope to measure a gray value of a back. Survival rates of zebrafish under different drug treatments were counted.

zebrafish [2] = assay: Zebrafish experiment: survival rates under drug treatment; format: in vivo
Method: as §1
1. A specific experimental method was as follows: • (1) In the afternoon of day 1, fish mating was conducted to produce 800 to 1,000 fish eggs in a same batch. Experimental groups: an untreated group (negative control), a TYR-4 drug group A3 (10 μM), an arbutin group 1 (10 μM), and an arbutin group 2 (20 mM). • (2) In the morning of day 2, fish eggs were collected and dispensed in a 24-well plate with about 10 embryos per well, where 12 wells were set for each treatment group, that is, about 120 embryos were adopted for each treatment group. In the afternoon of day 2, water was replaced by an E3 medium including a sample in a corresponding experimental group. • (3) Every morning thereafter, the original medium was replaced by a fresh E3 medium including a sample in a corresponding experimental group. • (4) After fish came out from an egg membrane, the egg membrane was removed, the plate was washed twice with an E3 medium, and an E3 medium including a sample in a corresponding experimental group was added, where a date on which the fish came out from the egg membrane was recorded as day 0. • (5) From day 1 to day 5, after a medium was changed every morning, 15 fish were randomly selected from each experimental group and tested under a stereo microscope to measure a gray value of a back. Survival rates of zebrafish under different drug treatments were counted.

zebrafish [3] = assay: Zebrafish experiment: melanin precipitate after lysis on day 5; format: in vivo; conditions: 10 μM
Method: 2. After photographing was completed on day 5, 100 zebrafish were taken from each group (only 80 to 90 live fish were left in the 10 μM arbutin group), transferred to a 1.5 mL EP tube, and washed twice with pure water, then 500 μL of 1 M Tris-HCl with a pH of 8.0 was added, ultrasonic lysis was conducted on ice (40% power, on 3 s/off 2 s per cycle, and ultrasonic time: 10 min), and a resulting lysis system was centrifuged at 12,000 rpm and 4° C. for 15 min to obtain a melanin precipitate.

[4] = Performance test: cytotoxicity; format: cell-based
Method: (§2) The cytotoxicity, TYR-inhibiting efficiency, and solubility of the molecule A3 were tested.

[5] = Performance test: solubility; format: physicochemical; conditions: organic solvent or mixture; in DMSO
Method: as §2

TYR [6] = biological target: T1, TYR (Homo sapiens, UniProt P14679); assay: Performance test: TYR-inhibiting efficiency; format: cell-based; set-up: endogenous in cells
T1 sequence (P14679 19-529): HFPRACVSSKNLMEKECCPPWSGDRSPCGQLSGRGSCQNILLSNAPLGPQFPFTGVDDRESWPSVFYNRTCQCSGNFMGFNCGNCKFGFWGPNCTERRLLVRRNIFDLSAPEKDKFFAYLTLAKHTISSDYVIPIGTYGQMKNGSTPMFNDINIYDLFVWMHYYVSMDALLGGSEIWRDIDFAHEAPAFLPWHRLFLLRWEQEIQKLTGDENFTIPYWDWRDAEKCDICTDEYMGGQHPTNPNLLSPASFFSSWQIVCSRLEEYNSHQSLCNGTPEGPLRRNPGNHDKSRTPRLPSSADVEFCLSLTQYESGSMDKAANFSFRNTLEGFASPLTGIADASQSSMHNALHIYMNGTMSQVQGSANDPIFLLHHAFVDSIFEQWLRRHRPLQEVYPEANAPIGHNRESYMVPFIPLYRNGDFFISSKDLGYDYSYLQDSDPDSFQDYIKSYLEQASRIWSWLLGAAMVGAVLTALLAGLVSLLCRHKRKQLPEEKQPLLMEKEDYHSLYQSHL
Method: as §2
The PROTAC molecule of the present application has excellent solubility and safety (IC50>200 μM) and a low effective concentration (1 μM to 10 μM).

TYR [7] = biological target: T1, TYR; assay: TYR protein level by western blot in human melanoma cell line A375; format: cell-based; set-up: endogenous in cells; host or cells: MNT-1 human melanoma cells; conditions: A375 cells, 24 h, 0.001-10 μmol/L, WB
Method: (§3) The human melanoma cell line A375 was treated for 24 h with the molecule A3 at a concentration gradient, and then a protein sample was collected and tested by western blot (WB) to determine a protein level of TYR. In the concentration gradient, final concentrations of the molecule A3 were 0.001 μmol/L, 0.01 μmol/L, 0.1 μmol/L, 1 μmol/L, and 10 μmol/L, respectively.

TYR [8] = biological target: T1, TYR; assay: TYR protein level by western blot in human melanoma cell line MNT-1; format: cell-based; set-up: endogenous in cells; host or cells: MNT-1 human melanoma cells; conditions: MNT-1 cells, 24 h, 0.001-10 μmol/L, WB
Method: as §3, with “MNT-1” for “A375”, “WB” for “western blot (WB)”

TYR [9] = biological target: T1, TYR; assay: Degradation pathway detection with proteasome inhibitor MG132 in MNT-1 cells (WB of TYR); format: cell-based; set-up: endogenous in cells; host or cells: MNT-1 human melanoma cells; conditions: 1 or 10 μM A3 + 10 μM MG132, 24 h
From the text: A molecular mechanism of the PROTAC molecule to degrade a target protein is as follows: molecular elements at two ends of the PROTAC molecule bind to the target protein and an ubiquitin ligase, respectively, such that the target protein is ubiquitinated and thus degraded by a proteasome. A proteasome inhibitor MG132 was used to determine whether an impact of the PROTAC molecule on a protein level of TYR was based on a proteasome degradation pathway.
A specific treatment method included the following steps: • (1) MNT-1 cells were plated on a 6-well plate and allowed to grow adherently until a cell confluency was 80%. • (2) The cells were treated according to the following groups: • (a) a normal control group; (b) a 1 μM A3 treatment group; (c) a 10 μM A3 treatment group; (d) a 10 μM MG132 treatment group; (e) a 1 μM A3+10 μM MG132 treatment group; and (f) a 10 μM A3+10 μM MG132 treatment group. • (3) 24 h after a treatment, cells in each group were collected and lysed, and a resulting total protein lysate was collected and tested by WB to determine an expression level of TYR.

Row | Structure (SMILES) | inhibitory effect on melanin production in zebrafish (gray value of back) (zebrafish [1]; 10 μM, day 1 to day 5) | effect on melanin production compared with arbutin (zebrafish [1]; same concentration (10 μM)) | toxic and side effects, death (zebrafish [2]; effective concentration (10 μM)) | melanin precipitate amount versus untreated group (zebrafish [3]) | IC50 [4] [µM] | solubility [5] [mg/mL] | EC50 (TYR [6]) [µM] | inhibitory effect on TYR protein level (TYR [7]) | inhibitory effect on TYR protein level (TYR [8]) | degradation effect on TYR after MG132 is added (TYR [9]) | day on which death occurs (zebrafish [2]; 10 μM) [days] | live fish left (zebrafish [2]; 10 μM, day 5) | survival rate (zebrafish [2]; 10 μM, day 5) | day on which death occurs (zebrafish [2]; 20 mM) [days] | survival (zebrafish [2]; 20 mM, day 5)
1 | O=C1CCC(N2Cc3c(NC(=O)CCCCCCNC(=O)c4cc[nH]c(=S)c4)cccc3C2=O)C(=O)N1 (stereo not shown) [A3] | significant inhibitory effect on melanin production in zebrafish | better effect than common whitening agents such as arbutin | does not have any toxic and side effects and does not cause death | significantly smaller than the melanin precipitate amount in the untreated group | > 200 | > 523 | < 10 | has an inhibitory effect on TYR in the cell line A375 | has a significant inhibitory effect on TYR in the cell line MNT-1 | significantly inhibited after MG132 is added | – | – | – | – | –
2 | OC[C@H]1O[C@@H](Oc2ccc(O)cc2)[C@H](O)[C@@H](O)[C@@H]1O [arbutin] | – | – | – | significantly smaller than the melanin precipitate amount in the untreated group | – | – | – | – | – | – | 4 | 80 to 90 | about 80% | 3 | basically dies
